Assays:
[1] = system: horseweed; test: Test C postemergence; assay type: in vivo, Erigeron canadensis; settings: 500 g ai/ha, 10 days
Summary of the method: (§1)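 Soil-applied (pre) and foliar (post, 1–2 leaf, 2–10 cm) sprays; surfactant-containing non-phytotoxic solvent vehicle; loam/sand substrate. Readout: visual % control at 10 d, greenhouse, versus untreated.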

[2] = system: kochia; test: Test C postemergence; assay type: in vivo, Bassia scoparia; settings: 10 days, 0 to 100 scale (0 no effect, 100 complete control)
Summary of the method: as §1

[3] = system: green foxtail; test: Test C preemergence; assay type: in vivo, Setaria viridis; settings: for Foxtail, Green plant response rating: 500 g ai/ha, preemergence, 0 to 100 scale (0 no effect, 100 complete control)
Summary of the method: as §1

[4] = system: ryegrass, Italian; test: Test C preemergence; assay type: in vivo, Lolium multiflorum; settings: for Ryegrass, Italian plant response rating: 500 g ai/ha, preemergence, 0 to 100 scale (0 no effect, 100 complete control)
Summary of the method: as §1

[5] = system: pigweed, palmer; test: Test C preemergence; assay type: in vivo, Amaranthus palmeri; settings: for Pigweed, Palmer plant response rating: 500 g ai/ha, preemergence, 0 to 100 scale (0 no effect, 100 complete control)
Summary of the method: as §1

[6] = system: oat, wild; test: Test C postemergence; assay type: in vivo, Avena fatua; settings: 10 days, 0 to 100 scale (0 no effect, 100 complete control)
Summary of the method: as §1

[7] = system: corn; test: Test C preemergence; assay type: in vivo, Zea mays; settings: for Corn plant response rating: 500 g ai/ha, preemergence, 0 to 100 scale (0 no effect, 100 complete control)
Summary of the method: as §1

[8] = system: barnyardgrass; test: Test D flooded paddy test; assay type: in vivo, Echinochloa crus-galli; settings: 250 g ai/ha, applied to paddy water, visual rating after 13 to 14 days, scale 0 to 100 (0 no effect, 100 complete control)
Summary of the method: (§2)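 Visual ratings from 0, meaning no effect, to 100, meaning complete control, were assigned against untreated controls 13 to 14 days after compounds were added to the floodwater of pots kept 3 cm deep, with plants at the 2-leaf stage.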

[9] = system: barnyardgrass; test: Test C postemergence; assay type: in vivo, Echinochloa crusgalli; settings: 10 days
Summary of the method: as §1

[10] = system: soybean; test: Test C preemergence; assay type: in vivo, Glycine max; settings: for Soybean plant response rating: 500 g ai/ha, preemergence, 0 to 100 scale (0 no effect, 100 complete control)
Summary of the method: as §1

[11] = system: sedge, umbrella; test: Test D flooded paddy test; assay type: in vivo, Cyperus difformis; settings: 250 g ai/ha, applied to paddy water, visual rating after 13 to 14 days, scale 0 to 100 (0 no effect, 100 complete control)
Summary of the method: as §2

[12] = system: wheat; test: Test C postemergence; assay type: in vivo, Triticum aestivum; settings: 10 days, 0 to 100 scale (0 no effect, 100 complete control)
Summary of the method: as §1

[13] = system: rice; test: Test D flooded paddy test; assay type: in vivo, Oryza sativa; settings: 250 g ai/ha, applied to paddy water, visual rating after 13 to 14 days, scale 0 to 100 (0 no effect, 100 complete control)
Summary of the method: as §2

[14] = system: ragweed; test: Test C postemergence; assay type: in vivo, Ambrosia artemisiifolia; settings: 10 days, 0 to 100 scale (0 no effect, 100 complete control)
Summary of the method: as §1

[15] = system: ryegrass, Italian; test: Test C postemergence; assay type: in vivo, Lolium multiflorum; settings: 10 days, 0 to 100 scale (0 no effect, 100 complete control)
Summary of the method: as §1

[16] = system: corn; test: Test C postemergence; assay type: in vivo, Zea mays; settings: 10 days; for Plant response rating, Corn: 0 to 100 scale (0 no effect, 100 complete control)
Summary of the method: as §1

[17] = system: galium; test: Test C postemergence; assay type: in vivo, Galium aparine; settings: 10 days
Summary of the method: as §1

[18] = system: soybean; test: Test C postemergence; assay type: in vivo, Glycine max; settings: 10 days, 0 to 100 scale (0 no effect, 100 complete control)
Summary of the method: as §1

[19] = system: barnyardgrass; test: Test C preemergence; assay type: in vivo, Echinochloa crusgalli; settings: for Plant response rating, Barnyardgrass: Preemergence
Summary of the method: as §1

[20] = system: ragweed; test: Test C preemergence; assay type: in vivo, Ambrosia artemisiifolia; settings: for Ragweed plant response rating: 500 g ai/ha, preemergence, 0 to 100 scale (0 no effect, 100 complete control)
Summary of the method: as §1

[21] = system: wheat; test: Test C preemergence; assay type: in vivo, Triticum aestivum; settings: for Wheat plant response rating: 500 g ai/ha, preemergence, 0 to 100 scale (0 no effect, 100 complete control)
Summary of the method: as §1

[22] = system: blackgrass; test: Test C preemergence; assay type: in vivo, Alopecurus myosuroides; settings: for Plant response rating, Blackgrass: Preemergence
Summary of the method: as §1

[23] = system: ducksalad; test: Test D flooded paddy test; assay type: in vivo, Heteranthera limosa; settings: 250 g ai/ha, applied to paddy water, visual rating after 13 to 14 days, scale 0 to 100 (0 no effect, 100 complete control)
Summary of the method: as §2

[24] = system: green foxtail; test: Test C postemergence; assay type: in vivo, Setaria viridis; settings: 10 days
Summary of the method: as §1

[25] = system: kochia; test: Test C preemergence; assay type: in vivo, Bassia scoparia; settings: for Kochia plant response rating: 500 g ai/ha, preemergence, 0 to 100 scale (0 no effect, 100 complete control)
Summary of the method: as §1

[26] = system: pigweed, palmer; test: Test C postemergence; assay type: in vivo, Amaranthus palmeri; settings: 10 days, 0 to 100 scale (0 no effect, 100 complete control)
Summary of the method: as §1

[27] = system: blackgrass; test: Test C postemergence; assay type: in vivo, Alopecurus myosuroides; settings: 10 days; for Plant response rating, Blackgrass: 0 to 100 scale (0 no effect, 100 complete control)
Summary of the method: as §1

[28] = system: oat, wild; test: Test C preemergence; assay type: in vivo, Avena fatua; settings: 500 g ai/ha, preemergence; 0 to 100 scale (0 no effect, 100 complete control)
Summary of the method: as §1

[29] = Preemergence, 125 g ai/ha, 0 to 100 scale, 0 no effect, 100 complete control
[30] = 500 g ai/ha, postemergence, 0 to 100 scale (0 no effect, 100 complete control)
[31] = Postemergence, 125 g ai/ha, 0 to 100 scale (0 no effect, 100 complete control)
[32] = 500 g ai/ha, preemergence, 0 to 100 scale (0 no effect, 100 complete control)
[33] = 125 g ai/ha, 0 to 100 scale, 0 no effect, 100 complete control
[34] = Postemergence, 500 g ai/ha, visual 0 to 100 scale (0 no effect, 100 complete control)
[35] = 500 g ai/ha, visual rating after 10 days, 0 to 100 scale (0 no effect, 100 complete control)

SMILES: CC(=O)c1ncn(-c2ccc(C)c(C(=O)N3C[C@H](C)Oc4c(Cl)cccc43)c2)n1 [Compound 360]
- Plant response rating, Horseweed ([1]; postemergence, 0 to 100 scale (0 no effect, 100 complete control)): 30
- Plant response rating, Kochia ([2]; 500 g ai/ha, postemergence): 70
- Plant response rating, Kochia ([2]; Postemergence, 125 g ai/ha): 20
- Foxtail, Green plant response rating [3]: 100
- Plant response rating, Foxtail, Green [3, 29]: 100
- Ryegrass, Italian plant response rating [4]: 90
- Plant response rating, Ryegrass, Italian [4, 29]: 80
- Pigweed, Palmer plant response rating [5]: 90
- Plant response rating, Pigweed, Palmer [5, 29]: 30
- Plant response rating, Oat, Wild ([6]; 500 g ai/ha, postemergence): 90
- Plant response rating, Oat, Wild ([6]; Postemergence, 125 g ai/ha): 30
- Corn plant response rating [7]: 70
- Plant response rating, Corn [7, 29]: 60
- Plant response rating, Barnyardgrass (Flood) [8]: 45
- Plant response rating, Barnyardgrass [9, 30]: 100
- Plant response rating, Barnyardgrass [9, 31]: 90
- Soybean plant response rating [10]: 100
- Plant response rating, Soybean [10, 29]: 80
- Plant response rating, Sedge, Umbrella (Flood) [11]: 90
- Plant response rating, Wheat ([12]; 500 g ai/ha, postemergence): 50
- Plant response rating, Wheat ([12]; Postemergence, 125 g ai/ha): 30
- Plant response rating, Rice (Flood) [13]: 15
- Plant response rating, Ragweed ([14]; 500 g ai/ha, postemergence): 80
- Plant response rating, Ragweed ([14]; Postemergence, 125 g ai/ha): 50
- Plant response rating, Ryegrass, Italian ([15]; 500 g ai/ha, postemergence): 100
- Plant response rating, Ryegrass, Italian ([15]; Postemergence, 125 g ai/ha): 70
- Plant response rating, Corn ([16]; 500 g ai/ha, postemergence): 90
- Plant response rating, Corn ([16]; Postemergence, 125 g ai/ha): 90
- Plant response rating, Galium [17, 30]: 100
- Plant response rating, Galium [17, 31]: 100
- Plant response rating, Soybean ([18]; 500 g ai/ha, postemergence): 100
- Plant response rating, Soybean ([18]; Postemergence, 125 g ai/ha): 100
- Barnyardgrass plant response rating [19, 32]: 100
- Plant response rating, Barnyardgrass [19, 33]: 100
- Ragweed plant response rating [20]: 100
- Plant response rating, Ragweed [20, 29]: 80
- Wheat plant response rating [21]: 80
- Plant response rating, Wheat [21, 29]: 40
- Blackgrass plant response rating [22, 32]: 100
- Plant response rating, Blackgrass [22, 33]: 80
- Plant response rating, Ducksalad (Flood) [23]: 100
- Plant response rating, Foxtail, Green [24, 30]: 90
- Plant response rating, Foxtail, Green [24, 31]: 90
- Kochia plant response rating [25]: 80
- Plant response rating, Kochia [25, 29]: 20
- Plant response rating, Pigweed, Palmer ([26]; 500 g ai/ha, postemergence): 90
- Plant response rating, Pigweed, Palmer ([26]; Postemergence, 125 g ai/ha): 60
- Plant response rating, Blackgrass ([27]; 500 g ai/ha, postemergence): 90
- Plant response rating, Blackgrass ([27]; Postemergence, 125 g ai/ha): 80

SMILES: CC(C)c1ncn(-c2cc(O)c(O)c(C(=O)N3C[C@H](C)Oc4c(Cl)cccc43)c2)n1 [Compound 272, [(2S)-8-chloro-2-methyl-2,3-dihydro-1,4-benzoxazin-4-yl]-[2,3-dihydroxy-5-(3-isopropyl-1,2,4-triazol-1-yl)phenyl]methanone]
- Plant response rating, Horseweed ([1]; Postemergence, visual 0 to 100 scale (0 no effect, 100 complete control)): 10
- Foxtail, Green plant response rating [3]: 0
- Ryegrass, Italian plant response rating [4]: 0
- Pigweed, Palmer plant response rating [5]: 90
- Corn plant response rating [7]: 0
- Plant response rating, Barnyardgrass (Flood) [8]: 0
- Oat, Wild plant response rating [28]: 0
- Plant response rating, Barnyardgrass [9, 34]: 0
- Soybean plant response rating [10]: 0
- Plant response rating, Sedge, Umbrella (Flood) [11]: 0
- Plant response rating, Rice (Flood) [13]: 0
- Corn plant response rating (crop injury, 0 = no effect, 100 = complete kill) at 500 g/ha ([16]; Zea mays, post-emergence, 240 h, Postemergence, 500 g ai/ha, visual 0 to 100 scale (0 no effect, 100 complete control)): 0%
- Plant response rating, Galium [17, 34]: 0
- Plant response rating, Barnyardgrass [19, 35]: 0
- Ragweed plant response rating [20]: 30
- Wheat plant response rating [21]: 0
- Plant response rating, Blackgrass [22, 35]: 0
- Plant response rating, Ducksalad (Flood) [23]: 0
- Plant response rating, Foxtail, Green [24, 34]: 0
- Kochia plant response rating [25]: 0
- pest or weed control at 500 g/ha ([27]; Alopecurus myosuroides, post-emergence, 240 h, Postemergence, 500 g ai/ha, visual 0 to 100 scale (0 no effect, 100 complete control), read-out: Plant response rating, Blackgrass): 0%
